Experimental data: publication PMC7718890 (Scientific Reports, 2020)
Read-outs that look alike come from different tables or passages of the source.

Target: CarD·RNAP binding (CarD association with RPo) (Mycobacterium tuberculosis, UniProt P9WGY7+P9WGY9+P9WJG3, D68C)
[1] = read-out: CarD-BODIPY-FL assay CCG sample IC50
[2] = read-out: CarD-BODIPY-FL assay Powder sample IC50

## COC(=O)c1noc(C)c1C(=O)/C=C/N1CCCCC1 [CCG-42210]
[1]
  IC50: 106 µM
[2]
  IC50: 85 µM

## CC(=O)Nc1ccc(NC(=O)c2ccccc2C(=O)O)cn1 [CCG-52160]
[1]
  IC50: 37 µM
[2]
  IC50: 680 µM

## O=C(NC(=O)N1CCCC1)C1CCN(c2cnc3ccccc3n2)CC1 [CCG-52363]
[1]
  IC50: 60 µM
[2]
  IC50: 200 µM

## CC(=O)Nc1ccc(NC(=O)c2nccnc2C(=O)O)cn1 [CCG-52573]
[1]
  IC50: 78 µM
[2]
  IC50: 160 µM

## CCC(=O)Nc1cccc2c(NC(=O)CC)cccc12 [CCG-53654]
[1]
  IC50: 15 µM
[2]
  IC50: 188 µM

## Cc1cc2c(NC(=O)Nc3ccccc3)cccc2nn1 [CCG-237488]
[1]
  IC50: 25 µM

## CC(=O)c1sc2nsc(SCCN3CCCC3)c2c1N [CCG-239496]
[1]
  IC50: 90 µM
[2]
  IC50: 47 µM

## CN(C)c1ncnc(Oc2ccc(Cl)cc2)c1[N+](=O)[O-] [CCG-247600]
[1]
  IC50: 250 µM
[2]
  IC50: 132 µM

## O=C(O)c1ccc(-c2nc3ccc(-c4ccc5nc(-c6ccc(C(=O)O)cc6)[nH]c5c4)cc3[nH]2)cc1 [CCG-249580]
[1]
  IC50: 263 µM
[2]
  IC50: 202 µM

## NC(=O)c1ccc(CC(=O)c2ccc(Cl)cc2)cc1 [CCG-251660]
[1]
  IC50: 106 µM
[2]
  IC50: 37 µM
